Laboratory results from US10130619B2, “Amido thiadiazole derivatives as NADPH oxidase inhibitors” (GENKYOTEX SUISSE SA, priority 2014, dated 2018).

What follows are compounds tested against hNOX1 (Homo sapiens (Human), UniProt Q9Y5S8) (assay: ROS production measurement on hNOX1 membranes (Amplex Red fluorescence assay, assay 1)). Conditions: assay 1: membranes from CHO cells overexpressing hNox1, Amplex Red/HRP fluorescence, NADPH 30 μM; non linear regression (GraphPad Prism); read-out: Nox1 inhibitory constant Ki.
Type: biochemical
Experimental: Reactive oxygen species (ROS) production generated by hNOX1 enzyme was measured by fluorescence in both cellular and membrane-based assays using the Amplex® Red reagent. In the presence of horseradish peroxidase (HRP), the Amplex® Red reagent (10-acetyl-3,7-dihydroxyphenoxazine, AR), which is a colorless and nonfluorescent derivative of dihydroresorufin, reacts with H2O2 with a 1:1 stoichiometry to produce highly fluorescent resorufin at an excitation and emission wavelengths of 544 nm and 590 nm, respectively.
After resuspension in sonication buffer (11% sucrose, 120 mM NaCl, 1 mM EGTA in PBS, pH 7.4), cells were broken by sonication and centrifuged (200 g, 10 min). The supernatant was layered onto a 17/40% (w/v) discontinuous sucrose gradient and centrifuged (150,000 g for 30 min). Membrane fractions were collected from the 17/40% interface, aliquoted in 10 μl samples and were stored at −80° C. Protein concentration was determined with Bradford reagent. Flavin Adenine Dinucleotide (FAD) (catalog # F6625-500MG), MgCl2 (catalog # M8266-100G), Phosphatidic Acid (PA) (catalog # P3591-50MG) were purchased from Sigma-Aldrich. […] NADPH (catalog #A1395, 0500) was purchased from Applichem. Amplex red (AR) (catalog # A22177) was purchased from Invitrogen. […] FLUOstar OPTIMA microplate reader was supplied by BMG Labtech (Germany). Zephyr® Compact Liquid Handling Workstation was supplied by PerkinElmer (Germany).
Assay 1: ROS Production Measurement on hNOX1 Membranes
All solutions were placed on ice and protected from light.
The NADPH was dissolved in water at a concentration of 12 mM and was transferred in a metal transfer plate kept at 4° C. The NADPH was added to the assay plate to initiate the reaction just before the measurement.
Serial dilution (1:3, 10 serial dilution) of the compounds was performed in 100% DMSO in 96 well polypropylene plate—Row B-H […], Row A, Column 1-10 contained reference compound. Starting concentration was 10^−2 M (10 mM). Final concentration in assay was 10^−4 M (100 μM). Compounds were diluted twice in PBS buffer by transferring 30 μl/well of PBS into 30 μl/well compounds sample in DMSO using Zephyr® Compact Liquid Handling Workstation. Control wells-columns 1 and 12-contained 60 μl DMSO in 50% PBS pH7.
Reaction mixture is dispensed using Zephyr® Compact Liquid Handling Workstation. 90 μl of mix with membrane were dispensed into 96 well black plates—Column 2-11, Column 1 Row A-D, Column 12 Row E-H. 90 μl of control mix were dispensed into assay plate—Column 1 Row E-H, Column 12 Row A-D, which are wells for measuring background signal. 2 μl of compounds were dispensed into each well of assay plate using Zephyr® Compact Liquid Handling Workstation. The reaction mixture with compounds was incubated in assay plates for 20 min at 37° C. in a Titramax microplate incubator with gentle agitation. 10 μl of NADPH is dispensed to the assay plate. Fluorescence reading was recorded with the FLUOstar OPTIMA microplate reader for 10 min at 37° C. (8 cycles, 1 cycle duration 55 sec).

Chain of hNOX1 (Q9Y5S8 whole entry): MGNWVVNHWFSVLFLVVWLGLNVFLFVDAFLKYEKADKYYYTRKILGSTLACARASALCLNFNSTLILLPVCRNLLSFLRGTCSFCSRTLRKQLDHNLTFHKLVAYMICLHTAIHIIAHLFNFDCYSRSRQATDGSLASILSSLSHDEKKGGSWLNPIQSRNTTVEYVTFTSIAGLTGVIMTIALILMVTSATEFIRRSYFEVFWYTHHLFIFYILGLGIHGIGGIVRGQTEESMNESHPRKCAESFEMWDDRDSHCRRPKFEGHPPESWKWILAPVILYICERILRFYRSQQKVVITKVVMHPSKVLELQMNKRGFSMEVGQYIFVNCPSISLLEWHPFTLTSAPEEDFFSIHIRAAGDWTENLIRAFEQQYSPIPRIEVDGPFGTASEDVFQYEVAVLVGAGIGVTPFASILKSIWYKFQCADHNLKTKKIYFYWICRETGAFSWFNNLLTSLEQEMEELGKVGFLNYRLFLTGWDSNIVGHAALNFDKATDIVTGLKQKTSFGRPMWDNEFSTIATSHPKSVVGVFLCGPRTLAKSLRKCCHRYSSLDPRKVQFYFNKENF
Chain of hNOX1 (P13498 whole entry partner): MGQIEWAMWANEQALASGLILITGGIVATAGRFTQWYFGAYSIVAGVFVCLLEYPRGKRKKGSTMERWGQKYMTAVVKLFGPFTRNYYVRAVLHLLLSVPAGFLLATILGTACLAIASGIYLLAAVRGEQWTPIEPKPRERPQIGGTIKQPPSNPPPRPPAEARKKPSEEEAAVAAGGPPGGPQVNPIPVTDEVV

Row | SMILES | Ki [nM]
1 | Cc1nc(OCc2ccccc2)ccc1C(=O)Nc1nnc(-c2ccncc2)s1 [(45)] | 77
2 | COc1cc(C(=O)Nc2nnc(-c3ccncc3)s2)ccc1OCc1cscn1 [(83)] | 80
3 | COc1cc(C(=O)Nc2nnc(-c3ccncc3)s2)ccc1OCc1cccnc1C [(89)] | 91
4 | COc1cc(C(=O)Nc2nnc(-c3ccncc3)s2)ccc1OCc1ccc(C)cn1 [(90)] | 100
5 | COc1cc(C(=O)Nc2nnc(-c3ccncc3)s2)ccc1OCc1cc(C)on1 [(91)] | 78
6 | COc1ccc(COc2ccc(C(=O)Nc3nnc(-c4ccncc4)s3)cc2OC)cc1 [(92)] | 32
7 | COc1cc(C(=O)Nc2nnc(-c3ccncc3)s2)ccc1OCc1ccccc1F [(93)] | 52
8 | COc1cc(C(=O)Nc2nnc(-c3ccncc3)s2)ccc1OCc1ccc(F)cc1 [(96)] | 14
9 | COc1cc(C(=O)Nc2nnc(-c3ccncc3)s2)ccc1OCc1cc(C2CC2)on1 [(98)] | 74
10 | COc1cc(C(=O)Nc2nnc(-c3ccncn3)s2)ccc1O[C@@H](C)c1ccccn1 [(102)] | 87
11 | COc1cc(C(=O)Nc2nnc(-c3ccncc3F)s2)ccc1O[C@@H](C)c1ccccn1 [(103)] | 13
12 | COc1cc(C(=O)Nc2nnc(-c3ccncc3F)s2)ccc1O[C@@H](CO)c1ccccc1 [(105)] | 19
13 | COc1cc(C(=O)Nc2nnc(-c3ccncc3F)s2)ccc1O[C@@H](CN(C)C)c1ccccc1 [(106)] | 22
14 | COc1cc(C(=O)Nc2nnc(-c3ccncn3)s2)ccc1OCc1ccccc1 [(111)] | 75
15 | COc1cc(C(=O)Nc2nnc(-c3ccncn3)s2)cnc1O[C@@H](CN(C)C)c1ccccc1 [(114)] | 37
16 | COc1cc(C(=O)Nc2nnc(-c3ccnc(C)c3)s2)ccc1O[C@@H](CN(C)C)c1ccccc1 [(115)] | 110
17 | COc1cc(C(=O)Nc2nnc(-c3ccncc3)s2)ccc1CN(C)c1ccccn1 [(120)] | 93

Now from value to compound:

Row | Ki [nM] | SMILES
18 | 79 | Cc1nc(O[C@@H](C)c2ccccc2)ccc1C(=O)Nc1nnc(-c2ccncc2)s1 [(43)]
19 | 35 | COc1cc(C(=O)Nc2nnc(-c3ccncc3)s2)cnc1O[C@@H](C)c1ccccn1 [(46)]
20 | 21 | C[C@H](Oc1ncc(C(=O)Nc2nnc(-c3ccncc3)s2)cc1NCCN(C)C)c1ccccc1 [(51)]
21 | 18 | C[C@H](Oc1ncc(C(=O)Nc2nnc(-c3ccncc3)s2)cc1NCC1CCOCC1)c1ccccc1 [(52)]
22 | 19 | C[C@H](Oc1ncc(C(=O)Nc2nnc(-c3ccncc3)s2)cc1NCC1CCN(C)CC1)c1ccccc1 [(53)]
23 | 31 | C[C@H](Oc1ncc(C(=O)Nc2nnc(-c3ccncc3)s2)cc1NCCCN(C)C)c1ccccc1 [(63)]
24 | 51 | C[C@H](Oc1ncc(C(=O)Nc2nnc(-c3ccncc3)s2)cc1NCCO)c1ccccc1 [(65)]
25 | 66 | C[C@H](Oc1ncc(C(=O)Nc2nnc(-c3ccncc3)s2)cc1NCc1cn(C)cn1)c1ccccc1 [(66)]
26 | 75 | C[C@H](Oc1ncc(C(=O)Nc2nnc(-c3ccncc3)s2)cc1NC1CCN(C)CC1)c1ccccc1 [(67)]
27 | 72 | C[C@H](Oc1ncc(C(=O)Nc2nnc(-c3ccncc3)s2)cc1NCCN1CCOCC1)c1ccccc1 [(68)]
28 | 55 | C[C@H](Oc1ncc(C(=O)Nc2nnc(-c3ccncc3)s2)cc1N1CCN(C)CC1)c1ccccc1 [(69)]
29 | 90 | CNc1cc(C(=O)Nc2nnc(-c3ccncc3)s2)cnc1O[C@@H](CCN(C)C)c1ccccc1 [(75)]
30 | 27 | COc1cc(C(=O)Nc2nnc(-c3ccncc3)s2)ccc1O[C@@H]1CCc2ccccc21 [(80)]
31 | 38 | COc1cc(C(=O)Nc2nnc(-c3ccncc3)s2)ccc1OC1CCCc2ccccc21 (centres unmarked) [(82)]
32 | 37 | CC(Oc1ccc(C(=O)Nc2nnc(-c3ccncc3)s2)cc1OCCN(C)C)c1ccccc1 (centres unmarked) [(85)]
33 | 74 | COCCOc1cc(C(=O)Nc2nnc(-c3ccncc3)s2)ccc1OC(C)c1ccccc1 (centres unmarked) [(86)]
34 | 92 | O=C(Nc1nnc(-c2ccncc2)s1)c1cnc(O[C@@H](CO)c2ccccc2)c(Cl)c1 [(108)]
35 | 46 | COc1cc(C(=O)Nc2nnc(-c3ccncc3)s2)ccc1O[C@@H](C)Cc1ccccc1 [(116)]
